{
  "source": "patent US20240285785A1",
  "about": "“TARGETING SORTILIN” (priority 2022, published 2024)",
  "key": {"MDA-MB-231 tumor cells": {"test_system": "MDA-MB-231 tumor cells", "assay": "MDA-MB-231 murine xenograft efficacy model", "assay_type": "in vivo, BALB/c Nude mice", "details": "for body weight loss: Example 8, PDC 3 mg/kg, free MMAE 0.6 mg/kg, i.v. QW×4", "protocol": "Murine xenograft experiments were conducted at WuXi AppTec and/or Charles River Laboratories and the care and use of animals was conducted in accordance with the regulations of the Association for Assessment and Accreditation of Laboratory Animal Care (AAALAC). MDA-MB-231 tumor cells (ATCC, Manassas, VA, cat #HTB-26) were grown and maintained in L15 medium supplemented with 10% heat inactivated fetal bovine serum, 1% Antibiotic-Antimycotic, and L-glutamine (2 mM) at 37° C. in an atmosphere in 5% CO2, 95% air. BALB/c Nude, female, 6-8 weeks, weighing approximately 18-22 g were purchased from Vital River Laboratory Animal Technology Co., LTD. Mice were inoculated subcutaneously at the right flank with MDA-MB-231 tumor cells (e.g., triple negative breast cancer cells) (10×10^6) in 0.2 mL of PBS with Matrigel (1:1) for tumor development. Animals were randomized and treatment was started when the average tumor volume reached approximately 150-200 mm^3 for the efficacy study. Dosing volume was adjusted based on body weight and was administered at 10 ml/Kg. […] Free MMAE payload was also tested, and similarly dissolved in 25 mM Histidine 10% sucrose pH 7 and one or more of the following doses, 0.6, 0.06 mg/kg, were administered to the mice i.v. at a QW×4 schedule. Tumor sizes were measured twice weekly in two dimensions using a caliper, and the volume in mm^3 calculated using the formula: V=0.5 a×b^2, where a and b are the long and short diameters of the tumor, respectively. TGI was calculated for each group using the formula: TGI (%)=[1−(Ti−T0)/(Vi−V0)]×100; where Ti is the average tumor volume of a treatment group on a given day, T0 is the average tumor volume of the treatment group on the first day of treatment, Vi is the average tumor volume of the vehicle control group on the same day with Ti, and V0 is the average tumor volume of the vehicle group on the first day of treatment."}, "[1]": {"assay": "Murine hematotoxicity assay", "assay_type": "in vivo, BALB/c mice", "details": "3 mg/kg i.v. QW×4, compared to vehicle or MMAE treatment", "protocol": "Murine hematotoxicity experiments were conducted at Charles River Laboratories and the care and use of animals was conducted in accordance with the regulations of the Association for Assessment and Accreditation of Laboratory Animal Care (AAALAC). Wild type BALB/c, female, 7-8 weeks, weighing approximately 18-22 g were randomized and dosed intravenously with control or test articles at a QW×4 schedule. Dosing volume was adjusted based on body weight and was administered at 10 mL/Kg. PDCs were dissolved in 25 mM Histidine 10% sucrose pH 7 and 3 mg/kg was administered. Free MMAE payload was also tested, and similarly dissolved in 25 mM Histidine 10% sucrose pH 7 and administered to the mice at a dose of […] by i.v. injection at a QW×4 schedule. 3 days following each dose, 150 μL of whole blood was collected via submandibular method and placed in K2 EDTA tubes stored on ice. Blood neutrophil counts were performed on the day of collection by IDEXX labs. Body weights were recorded twice a week until study endpoint.\nAs outlined in the material and methods of Example 1, wild type BALB/c, female, 7-8 weeks, weighing approximately 18-22 g were randomized and dosed intravenously with control or test articles at a QW×4 schedule. Dosing volume was adjusted based on body weight and was administered at 10 ml/Kg. […] Free MMAE payload was also tested, and similarly dissolved in 25 mM Histidine 10% sucrose pH 7 and administered to the mice at a dose of […] by i.v. injection at a QW×4 schedule. 3 days following each dose, 150 μL of whole blood was collected via submandibular method and placed in K2 EDTA tubes stored on ice. Blood neutrophil counts were performed on the day of collection by IDEXX labs. Body weights were recorded twice a week until study endpoint."}, "[2]": {"assay": "Dynamic light scattering (DLS) solubility/aggregation", "assay_type": "physicochemical", "details": "working concentrations (250 nM, PBS, pH 7.4)", "protocol": "Samples were spun down on a bench top centrifuge, 15 minutes, 15,000 rpm, room temperature, to pellet any aggregated peptide/dust before taking a measurement. Visual inspection of the tubes was used to identify if any large pellets were formed, which is indicative of large aggregates. […] The plate was then transferred and read on the DLS instrument (Wyatt Technology DynaPro Plate Reader III) at 25° C."}, "SORT1": {"target": "T1, SORT1 (Homo sapiens, UniProt Q99523)", "T1 construct": "Human SORT1 (78-755)-His (Acrobiosystems); His (C); purchased Acrobiosystems SON—H52H5", "T1 sequence (Q99523 78-755)": "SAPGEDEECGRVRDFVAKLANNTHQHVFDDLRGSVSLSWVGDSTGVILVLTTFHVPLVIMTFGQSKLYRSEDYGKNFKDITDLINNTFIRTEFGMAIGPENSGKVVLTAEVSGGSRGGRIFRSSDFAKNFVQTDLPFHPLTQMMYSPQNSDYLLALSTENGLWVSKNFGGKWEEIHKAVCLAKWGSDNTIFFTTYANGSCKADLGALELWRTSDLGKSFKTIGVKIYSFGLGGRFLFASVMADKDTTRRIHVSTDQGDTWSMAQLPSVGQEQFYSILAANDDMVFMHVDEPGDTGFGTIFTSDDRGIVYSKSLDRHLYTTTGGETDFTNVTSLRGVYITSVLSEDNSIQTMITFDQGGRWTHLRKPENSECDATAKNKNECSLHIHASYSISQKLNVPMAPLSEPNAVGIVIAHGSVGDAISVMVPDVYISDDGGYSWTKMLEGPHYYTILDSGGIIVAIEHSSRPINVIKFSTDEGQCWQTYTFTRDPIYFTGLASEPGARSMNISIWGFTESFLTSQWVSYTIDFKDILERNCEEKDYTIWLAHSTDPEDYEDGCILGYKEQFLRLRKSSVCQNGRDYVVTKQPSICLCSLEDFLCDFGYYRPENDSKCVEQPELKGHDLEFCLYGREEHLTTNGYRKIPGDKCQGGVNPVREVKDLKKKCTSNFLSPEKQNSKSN", "assay": "Direct binding in fluorescence polarization (FP), FAM-labeled peptides", "experimental": "Peptides were dissolved into stock solutions in water, then brought up to final concentrations in 1×PBS, pH 7.4 and tested in DLS and CD (methods above) to ensure the peptides were soluble. Peptide concentrations were determined by quantifying the dye using the nanodrop and dye specific extinction coefficient at a specific wavelength. For FAM labeled dyes, the extinction coefficient 83000 cm^−1 M^−1 was used.\nFAM labeled peptides were diluted to 1 μM in FP buffer (1×PBS, pH 7.4, 0.1% Tween-20) and serially diluted two-fold for a 12-point series to determine concentration at which the fluorescence intensity was 10,000 RFU and the polarization of the peptide was consistent. A 10× working solution would thus be 10× the concentration of FAM labeled peptide that satisfied the above criteria. […]\nA 10× working solution of FAM-labeled peptides was prepared in the FP buffer (1×PBS, pH 7.4, 0.1% Tween-20). […] The 384-well plate was then centrifuged 1 min, 4000 rpm and fluorescence and polarization of dye measured on a Biotek Synergy Neo2 plate reader using the following settings (Excitation 485/20, Emission 528/20, Top read, Gain: 75, Light source: Xenon Flash, Lamp Energy: Low, Standard Dynamic range, Read speed: Normal, Delay: 0 msec, Measurements/Data Point: 10, Read Height: 9 mm). […]"}, "[3]": {"assay": "Maximum tolerated dose (MTD) study", "assay_type": "in vivo, BALB/c Nude mice", "details": "10 mg/kg single i.v. dose", "protocol": "BALB/c Nude mice, female, 6-8 weeks, weighing approximately 18-22 g were purchased from the Shanghai SLAC Laboratory Animal Co., LTD. MTD studies were conducted at WuXi AppTec and the care and use of animals was conducted in accordance with the regulations of the Association for Assessment and Accreditation of Laboratory Animal Care (AAALAC). Two MTD studies were performed (a) a low dose study with doses ranging from 0.1, 0.5, 1 and 3 mg/kg and (b) a high dose study with doses ranging from 3, 5, 10 mg/kg. Dosing volume was determined based on body weight (10 ul/g) and PDCs were dissolved in 25 mM Histidine 10% sucrose pH 7 and administered i.v. at a single dose at day 0. The treatment and observation were conducted up to 7 days and MTD was defined by ≥20% body weight loss. Body weights were measured daily, death and observed clinical signs were recorded.\nDoses of 3, 5, and 10 mg/kg were administered. MTD was defined by ≥20% body weight loss and body weight measured daily."}},
  "note": "Where a SMILES comes first, the peptide text is derived from it. [ ]: non-standard residue; d: D form. The star is where a group is joined. Dolaproine = CO[C@@H]([C@@H]1CCCN1)[C@@H](C)C(=O)O; Dil = CC[C@H](C)[C@H](NC)[C@@H](CC(=O)O)OC; X1 = C[C@@H](N*)[C@@H](O)c1ccccc1; NMeV = CN[C@H](C(=O)O)C(C)C",
  "data": [
    {"compound": "CCCC[C@@H]1NC(=O)[C@H](CCCNC(=N)N)NC(=O)[C@H](CCCCNC(=O)CN(C)C(=O)CN(C)C(=O)CN(C)C(=O)CN(C)C(=O)CCNC(=O)CCCC(=O)N[C@H](C(=O)N[C@@H](CCCNC(N)=O)C(=O)Nc2ccc(COC(=O)N(C)[C@H](C(=O)N[C@H](C(=O)N(C)[C@@H]([C@@H](C)CC)[C@@H](CC(=O)N3CCC[C@H]3[C@H](OC)[C@@H](C)C(=O)N[C@H](C)[C@@H](O)c3ccccc3)OC)C(C)C)C(C)C)cc2)C(C)C)NC(=O)[C@H](CC(N)=O)NC(=O)[C@H](CCC(=O)O)NC(=O)[C@@H](NC(=O)[C@H](Cc2c[nH]c3ccccc23)NC(=O)[C@H](CCCNC(=N)N)NC(C)=O)CSSC[C@@H](C(=O)N[C@@H](CCCNC(=N)N)C(=O)N[C@@H](CCC(N)=O)C(=O)N[C@H](C(=O)N[C@@H](CC(C)(C)C)C(=O)O)C(C)(C)C)NC(=O)[C@H]([C@@H](C)O)NC(=O)[C@H](Cc2ccccc2)NC1=O", "note": "[Arb_cyclic_G23-PDC]", "values": [
      {"measurement": "tumor growth inhibited relative to vehicle", "setting": "MDA-MB-231 tumor cells; 3 mg/kg i.v. QW×4, day 22 (Example 8)", "result": 68, "unit": "%"},
      {"measurement": "body weight loss", "setting": "MDA-MB-231 tumor cells", "result": "body weight loss tracked each other"},
      {"measurement": "blood neutrophil counts", "setting": "[1]", "result": "reduced neutrophil counts"}
    ]},
    {"compound": "CC[C@H](C)[C@@H]([C@@H](CC(=O)N1CCC[C@H]1[C@H](OC)[C@@H](C)C(=O)N[C@H](C)[C@@H](O)c1ccccc1)OC)N(C)C(=O)[C@@H](NC(=O)[C@@H](NC)C(C)C)C(C)C", "note": "[MMAE, Monomethyl auristatin E, reference compound] (H-[NMeV]V[Dil][Dolaproine]-X1)", "values": [
      {"measurement": "body weight variation", "setting": "MDA-MB-231 tumor cells; Example 6, PDC 3, 1, 0.3 mg/kg, free MMAE at equivalency to 3 mg/kg PDC", "result": "body weight fluctuations corresponding to treatment times"},
      {"measurement": "body weight loss", "setting": "MDA-MB-231 tumor cells", "result": "body weight fluctuations corresponding to treatment times"}
    ]},
    {"compound": "CC(C)C[C@H](NC(=O)[C@H](CCCNC(=N)N)NC(=O)[C@H](CC(C)C)NC(=O)[C@H](C)NC(=O)[C@H](CC(C)C)NC(=O)[C@H](CCCNC(=N)N)NC(=O)[C@H](CCC(N)=O)NC(=O)[C@H](CC(C)C)NC(=O)[C@H](C)NC(=O)[C@@H]1CCCN1C(=O)[C@H](Cc1c[nH]c2ccccc12)NC(=O)[C@@H]1CCCN1C(=O)[C@H](C)NC(=O)[C@H](CCCNC(=N)N)NC(=O)[C@@H]1CCCN1C(=O)[C@H](CC(=O)O)NC(=O)[C@@H](N)CC(=O)O)C(=O)O", "note": "[PRGN_RL]", "values": [
      {"measurement": "solubility (DLS)", "setting": "[2]", "result": "good solubility"},
      {"measurement": "poorer affinity than the WT sequence (PRGN_WT)", "setting": "SORT1; binding to SORT1-Ag", "result": "~7", "unit": "×"}
    ]},
    {"compound": "CC[C@H](C)[C@@H]([C@@H](CC(=O)N1CCC[C@H]1[C@H](OC)[C@@H](C)C(=O)N[C@H](C)[C@@H](O)c1ccccc1)OC)N(C)C(=O)[C@@H](NC(=O)[C@H](C(C)C)N(C)C(=O)OCc1ccc(NC(=O)[C@H](CCCNC(N)=O)NC(=O)[C@@H](NC(=O)CCCC(=O)NCCC(=O)N(C)CC(=O)N(C)CC(=O)N(C)CC(=O)N(C)CC(=O)N[C@@H](CC(=O)O)C(=O)N[C@@H](CC(=O)O)C(=O)N2CCC[C@H]2C(=O)N[C@@H](CCCNC(=N)N)C(=O)N[C@@H](C)C(=O)N2CCC[C@H]2C(=O)N[C@@H](Cc2c[nH]c3ccccc23)C(=O)N2CCC[C@H]2C(=O)N[C@@H](C)C(=O)N[C@@H](CC(C)C)C(=O)N[C@@H](CCC(N)=O)C(=O)N[C@@H](CCCNC(=N)N)C(=O)N[C@@H](CC(C)C)C(=O)N[C@@H](C)C(=O)N[C@@H](CC(C)C)C(=O)N[C@@H](CCCNC(=N)N)C(=O)N[C@@H](CC(C)C)C(=O)O)C(C)C)cc1)C(C)C", "note": "[PRGN_RL_PDC]", "values": [
      {"measurement": "toxicity", "setting": "[3]", "result": "mild toxicity"}
    ]},
    {"compound": "CC(C)C[C@H](NC(=O)[C@H](CC(C)C)NC(=O)[C@H](CCC(N)=O)NC(=O)[C@H](CCCNC(=N)N)NC(=O)[C@H](CC(C)C)NC(=O)[C@H](C)NC(=O)[C@@H]1CCCN1C(=O)[C@H](CC(=O)O)NC(=O)[C@H](CCCNC(=N)N)NC(=O)[C@H](CC(C)C)NC(=O)[C@@H]1CCCN1C(=O)[C@H](C)NC(=O)[C@H](CC(=O)O)NC(=O)[C@H](Cc1c[nH]c2ccccc12)NC(=O)[C@H](CCCNC(=N)N)NC(=O)[C@@H]1CCCN1C(=O)[C@H](C)N)C(=O)O", "note": "[PRGN_WT]", "values": [
      {"measurement": "solubility (DLS)", "setting": "[2]", "result": "good solubility"}
    ]},
    {"compound": "CC(C)C[C@H](NC(=O)[C@H](CC(C)C)NC(=O)[C@H](CC(=O)O)NC(=O)[C@H](CCCNC(=N)N)NC(=O)[C@@H]1CCCN1C(=O)[C@H](CC(C)C)NC(=O)[C@H](CCCNC(=N)N)NC(=O)[C@H](C)NC(=O)[C@H](CC(C)C)NC(=O)[C@H](CCCNC(=N)N)NC(=O)[C@@H](N)CCC(N)=O)C(=O)N[C@@H](C)C(=O)N[C@@H](Cc1c[nH]c2ccccc12)C(=O)N1CCC[C@H]1C(=O)N1CCC[C@H]1C(=O)N[C@@H](C)C(=O)N[C@@H](CC(=O)O)C(=O)O", "note": "[PRGN_scr, reference compound]", "values": [
      {"measurement": "solubility (DLS)", "setting": "[2]", "result": "good solubility"},
      {"measurement": "affinity in FP (direct binding to SORT1-Ag)", "setting": "SORT1; direct titration, FAM-labeled peptide", "result": "no binding"}
    ]}
  ]
}
